# Measured values published in EP0610475B1, “NERVE-DERIVED TRANSG[…] USEFUL FOR INDUCING NERVE REGENERATION” (YEDA RESEARCH AND DEVELOPMENT COMPANY, LTD., priority 1992, dated 1994).
# Where two headings read alike, the source gives them in different places.
# Test system: nerve-derived transglutaminase (TGN) purified from regenerating fish optic nerve, Carp (Cyprinus carpio), 55 kDa
# Method: The incorporation of radioactive putrescine to a carrier protein is an assay characteristic of enzymes of the transglutaminase family. Any carrier protein that has lysine residues may be used in the assay, such as casein, bovine serum albumin, etc.
# In this example, activity characteristic of the nerve-derived transglutaminase was measured by incorporation of [^14C)putrescine into N,N-dimethylcasein (Chakrabarty et al., 1987). The purified TGN enzyme eluted from the TG-Ab affinity column with glycine in Example 3 was dialyzed for 2 hours in the presence of N,N-dimethylcasein (1 mg/ml), before being added to the reaction mixture. The reaction was initiated by addition of […] TGN ([…]), followed by incubation for 20 min at 37°C and terminated by the addition of ice-cold trichloroacetic acid (TCA; final concentration, 5%).
# The enzyme activity was titrated with respect to temperature and pH and substrate concentration. […] Titration was carried out by measuring incorporation of [^14C]putrescine to caseine in the presence of TGN.
structure (smiles),measurement,setting,value
NCCCCN [putrescine],Km,"incorporation of [^14C]putrescine to caseine in the presence of TGN, calculated from titration of activity as a function of substrate concentration, 20 min at 37°C",0.55 µM
same,Km,"read-out: Km in the incorporation of putrescine, calculated as a function of substrate, list of TGN characteristics, unit inferred",0.55 µM
